Measurements published in publication PMC6946680, “Modulation of brain cation-Cl^− cotransport via the SPAK kinase inhibitor ZT-1a” (Nature Communications, 2020).
Where “and” joins values, the source holds several entries; their conditions need not be identical. Identical values can stand only once. Entries after “also recorded” stand apart in the source; their conditions may differ.

Assays:
NKCC1 pThr203/207/212 [1] = test: Pharmacodynamic study, NKCC1 phosphorylation in brain of naive mice; format: in vivo, mouse; details: for pTh203.207.212 / NKCC1: Fig S8a (brain)
Description: (§1) To define ZT-1a efficacy in naive mice in vivo, we examined phosphorylation of SPAK, NKCC1, and NCC in kidney, and phosphorylation of SPAK, NKCC1, and KCC3 in brain, after intraperitoneal (i.p.) administration of either ZT-1a (10, 30, 50, and 100 mg/kg) or Closantel (50 mg/kg as a reference). […]
(§2) 5. Pharmacodynamic (PD) study
(§3) Male C57BL/6j wild-type mice (6 weeks old, Charles River Laboratories Edinburgh UK) were treated with ZT-1a (in DMSO, Sigma) by subcutaneous injection at doses of 0, 3, 10, 30, 50 and 100 mg/kg. 50 mg/kg Closantel was administered as a comparative control. Vehicle control mice were treated with an equal volume of DMSO solution. One hour after administration, mice were sacrificed by cervical dislocation, and kidney and brain tissues were rapidly dissected and snap-frozen in liquid nitrogen. Age- […]
(§4) free conditions at the University of Dundee (UK) as described in our recent study1. Animal experiments and breeding were approved by the University of Dundee ethical committee and performed under a […]
(§5) Policy on the Care, Welfare and Treatment of Animals, and regulations set by the University of Dundee and the U.K. Home Office. […]
(§6) Brain and kidney tissues were collected at 60 min post injection, and proteins subjected to immunoblot were probed with antibodies specific for phosphorylated forms of SPAK,

[2] = Immunoblot of KCC site 1 phosphorylation (KCC3 Thr991) in HEK-293 cells transfected with FLAG-KCC3; format: cell-based, human
[3] = molecular target: human SPAK 452-547(C-term) with WNK peptide (RFQV) (Homo sapiens, UniProt Q9UEW8); test: Fluorescence polarization of SPAK–WNK peptide interaction; format: binding; details: for Inhibitor vs SPAK FL (fluorescence polarization signal): Fig S5b
[4] = tested on: regional cerebral blood flow; test: Regional cerebral blood flow by laser speckle contrast imaging after tMCAO; format: in vivo, mouse; details: for % CBF: single mice
Description: Regional cerebral blood flow was measured using a two-dimensional laser speckle contrast analysis system (PeriCam PSI High Resolution with PIMSoft, Perimed)[65]. Isoflurane-anesthetized mice were head-fixed using stereotaxic equipment during imaging. The skin was retracted to expose the intact skull. Images were taken at 19 frames/second with averaging. Average signal intensity was taken from fixed-size (0.5-mm^2) regions of interest drawn over the parietal bone plate on the ipsi (IL)- and contralateral (CL) sides. Percent perfusion values were taken in comparison with the mean values of the pre-ischemic ipsilateral side. Five consecutive images at each time period per animal were averaged for analysis. […]
cerebral blood flow (rCBF) in ischemic mice. a and d Representative two-dimensional laser speckle contrast images of rCBF. Vehicle (DMSO), ZT-1a (A, 2.5 mg/kg), or Closantel (D, 1.25 mg/kg, i.p.) was administered i.p. at 3 hr and again at 8 hr post-reperfusion after MCAO. Pseudocolor scale bar indicates relative signal intensity. b and e No changes of rCBF were detected in the non-ischemic […]
contralateral (CL) hemispheres of vehicle-control or ZT-1a-treated (b) or Closantel-treated mice (e).
Data are mean ± SD, n = 3. c and f Similar reductions and recoveries of rCBF in the ischemic ipsilateral hemispheres (IL) were detected in the ZT-1a-treated (c) or Closantel-treated ischemic mice (f), and neither differed from vehicle-injected mice. Data are mean ± SEM, n = 3.

NKCC1 pThr203/207/212 [5] = test: Pharmacodynamic study, NKCC1 phosphorylation in kidney of naive mice; format: in vivo, mouse; details: Fig S8b (kidney)
Description: as §1, §2, §3, §4, §5, §6

SPAK phosphorylation = test: Pharmacodynamic study, SPAK phosphorylation in kidney of naive mice; format: in vivo, mouse; details: Fig S8b (kidney)
Description: as §1, §2, §3, §4, §5, §6

SPAK pSer373 = test: Immunoblot of SPAK/OSR1 p-Ser373/Ser325 in HEK-293 cells; format: cell-based, human; details: for pSPAK/SPAK band intensity ratio: single replicates
C57BL/6J mice = test: Kaplan-Meier survival of naive and ischemic stroke mice at 25 mg/kg; format: in vivo, mouse
Description: We compared the neuroprotective efficacy of Closantel with that of the pan-WNK-kinase inhibitor WNK463. […] Moreover, toxicity of Closantel and ZT-1a at 25 mg/kg in naive and ischemic stroke mice was reflected in Kaplan–Meier survival curves (Supplementary Fig. 12).
Supplemental Fig. 12 Kaplan-Meier survival curve of naïve and ischemic stroke mice treated with […]
Normal naïve C57BL/6J mice, or mice after tMCAO randomly received Closantel or ZT-1a treatment […]
was monitored for 0-7 days post-treatment. No mortality was detected in the naïve mice treated with Closantel or ZT-1a. However, all ischemic stroke mice treated with Closantel died within 2 days, with a […]
median survival of 1 day. […]
days). n = 3 per group (naïve+Closantel or naive+ZT-1a), n = 6 per group (tMCAO+vehicle or tMCAO+Closantel or tMCAO+ZT-1a), *p < 0.05, Log-rank test.

NCC pThr46/50/55/60 = test: Pharmacodynamic study, NCC phosphorylation in kidney of naive mice; format: in vivo, mouse; details: Fig S8b (kidney)
Description: as §1, §2, §3, §4, §5, §6

Compound: Cc1cc(C(C#N)c2ccc(Cl)cc2)c(Cl)cc1NC(=O)c1cc(Cl)ccc1O (stereo not drawn) [ZT-1a, 5-chloro-N-(5-chloro-4-((4-chlorophenyl)(cyano)methyl)-2-methylphenyl)-2-hydroxybenzamide]
- NKCC1 phosphorylation (pThr203/207/212) in naive brains (NKCC1 pThr203/207/212 [1]; 60 min after administration): neither drug had reduced
- pTh203.207.212 / NKCC1 (NKCC1 pThr203/207/212 [1]; 10 mg/kg): 0.75 and 0.66 and 0.74 and 0.69
- pTh203.207.212 / NKCC1 (NKCC1 pThr203/207/212 [1]; 30 mg/kg): 0.62 and 0.59 and 0.64 and 0.61
- pTh203.207.212 / NKCC1 (NKCC1 pThr203/207/212 [1]; 50 mg/kg): 0.66 and 0.75 and 0.63 and 0.69
- pTh203.207.212 / NKCC1 (NKCC1 pThr203/207/212 [1]; 100 mg/kg): 0.61 and 0.67 and 0.74 and 0.58
- T906/KCC2 band intensity ratio ([2]; Hypotonic low Cl, 1 uM, single replicates): 0.214 and 0.239 and 0.189 and 0.203
- T906/KCC2 band intensity ratio ([2]; Hypotonic low Cl, 3 uM, single replicates): 0.058 and 0.074 and 0.03 and 0.063
- T906/KCC2 band intensity ratio ([2]; Hypotonic low Cl, 10 uM, single replicates): 0.03 and 0.034 and 0.02 and 0.026
- T906/KCC2 band intensity ratio ([2]; Isotonic control, 1 uM, single replicates (Fig 2 source data)): 0.356 and 0.264 and 0.316 and 0.279
- T906/KCC2 band intensity ratio ([2]; Isotonic control, 3 uM, single replicates): 0.166 and 0.176 and 0.153 and 0.142
- T906/KCC2 band intensity ratio ([2]; Isotonic control, 10 uM, single replicates): 0.065 and 0.041 and 0.054 and 0.049
- IC50 ([3]; 10 nM Lumino-Green WNK peptide, read-out: IC50, decrease in fluorescence polarization (SPAK–WNK peptide)): 325 µM
- Inhibitor vs SPAK FL (fluorescence polarization signal) ([3]; Inhibitor 1e-5 μM): 140.3 and 136 and 147.2
- Inhibitor vs SPAK FL (fluorescence polarization signal) ([3]; Inhibitor 0.0001 μM): 142.6 and 130.1 and 143.7
- Inhibitor vs SPAK FL (fluorescence polarization signal) ([3]; Inhibitor 0.001 μM): 141.9 and 135.2 and 145.3
- Inhibitor vs SPAK FL (fluorescence polarization signal) ([3]; Inhibitor 0.003 μM): 148.6 and 138.3 and 144.2
- Inhibitor vs SPAK FL (fluorescence polarization signal) ([3]; Inhibitor 0.01 μM): 150.4 and 140.8 and 146.2
- Inhibitor vs SPAK FL (fluorescence polarization signal) ([3]; Inhibitor 0.03 μM): 151.3 and 139.2 and 146.8
- Inhibitor vs SPAK FL (fluorescence polarization signal) ([3]; Inhibitor 0.1 μM): 152.2 and 141.6 and 147.3
- Inhibitor vs SPAK FL (fluorescence polarization signal) ([3]; Inhibitor 0.3 μM): 151.7 and 143.1 and 150.3
- Inhibitor vs SPAK FL (fluorescence polarization signal) ([3]; Inhibitor 1 μM): 154.3 and 140.8 and 151.4
- Inhibitor vs SPAK FL (fluorescence polarization signal) ([3]; Inhibitor 3 μM): 149 and 139.7 and 147.8
- Inhibitor vs SPAK FL (fluorescence polarization signal) ([3]; Inhibitor 10 μM): 149.9 and 139.1 and 147.3
- Inhibitor vs SPAK FL (fluorescence polarization signal) ([3]; Inhibitor 100 μM): 127.1 and 121.5 and 130.6
- % CBF ([4]; Fig S10b/S10e, Pre): 100%
- % CBF ([4]; Fig S10b/S10e, Reperfusion 10 min): 99% and 109% and 96%
- % CBF ([4]; Fig S10b/S10e, Reperfusion 20 min): 87% and 110% and 86%
- % CBF ([4]; Fig S10b/S10e, Reperfusion 3 h): 120% and 108% and 100%
- % CBF ([4]; Fig S10b/S10e, Reperfusion 4 h): 119% and 117% and 112%
- % CBF ([4]; Fig S10b/S10e, Reperfusion 24 h): 106% and 104% and 114%
- % CBF ([4]; Fig S10b/S10e, mcao 10 min): 78% and 99% and 105%
- % CBF ([4]; Fig S10b/S10e, mcao 20min): 76% and 107% and 98%
- % CBF ([4]; Fig S10b/S10e, mcao 50 min): 104% and 96%
- % CBF ([4]; Fig S10c/S10f, Pre): 100%
- % CBF ([4]; Fig S10c/S10f, Reperfusion 10 min): 70% and 72% and 78%
- % CBF ([4]; Fig S10c/S10f, Reperfusion 20 min): 75% and 66% and 82%
- % CBF ([4]; Fig S10c/S10f, Reperfusion 3 h): 84% and 102% and 81%
- % CBF ([4]; Fig S10c/S10f, Reperfusion 4 h): 75% and 87% and 86%
- % CBF ([4]; Fig S10c/S10f, Reperfusion 24 h): 83% and 101% and 109%
- % CBF ([4]; Fig S10c/S10f, mcao 10 min): 35% and 30% and 25%
- % CBF ([4]; Fig S10c/S10f, mcao 20min): 32% and 31% and 24%
- % CBF ([4]; Fig S10c/S10f, mcao 50 min): 30% and 27% and 22%
- regional cerebral blood flow (rCBF) ([4]; within the 24-h post-stroke period, ischemic mice): does not affect regional cerebral blood flow; also recorded: unaffected
- pTh203.207.212 / NKCC1 (NKCC1 pThr203/207/212 [5]; 10 mg/kg): 1.13 and 1.26 and 1.54 and 1.32
- pTh203.207.212 / NKCC1 (NKCC1 pThr203/207/212 [5]; 30 mg/kg): 1.14 and 0.89 and 0.64 and 0.77
- pTh203.207.212 / NKCC1 (NKCC1 pThr203/207/212 [5]; 100 mg/kg): 0.41 and 0.27 and 0.44 and 0.32
- pSer373 / SPAK (SPAK phosphorylation; 10 mg/kg): 0.9 and 1.08 and 0.92 and 0.99
- pSer373 / SPAK (SPAK phosphorylation; 30 mg/kg): 0.85 and 0.8 and 0.86 and 0.76
- pSer373 / SPAK (SPAK phosphorylation; 50 mg/kg): 0.56 and 0.45 and 0.51 and 0.41
- pSer373 / SPAK (SPAK phosphorylation; 100 mg/kg): 0.37 and 0.44 and 0.38 and 0.4
- pSPAK/SPAK band intensity ratio (SPAK pSer373; Hypotonic low Cl, 1 uM): 0.189 and 0.226 and 0.157 and 0.173
- pSPAK/SPAK band intensity ratio (SPAK pSer373; Hypotonic low Cl, 3 uM): 0.081 and 0.093 and 0.086 and 0.0963
- pSPAK/SPAK band intensity ratio (SPAK pSer373; Hypotonic low Cl, 10 uM): 0.038 and 0.034 and 0.031 and 0.043
- pSPAK/SPAK band intensity ratio (SPAK pSer373; Isotonic control, 1 uM): 0.113 and 0.123 and 0.106 and 0.12
- pSPAK/SPAK band intensity ratio (SPAK pSer373; Isotonic control, 3 uM): 0.067 and 0.051 and 0.053 and 0.059
- pSPAK/SPAK band intensity ratio (SPAK pSer373; Isotonic control, 10 uM): 0.031 and 0.034 and 0.024 and 0.028
- inhibition of SPAK phosphorylation at Ser373 (SPAK pSer373; ~3–10 µM ZT-1a, n = 3): 70 ± 3.8%
- mortality in naive mice (C57BL/6J mice; 25 mg/kg i.p., 0-7 days, n = 3): No mortality
- survival of ischemic stroke mice (C57BL/6J mice; 25 mg/kg i.p., Kaplan–Meier, n = 6): survived longer than Closantel-treated mice
- median survival of ischemic stroke mice (C57BL/6J mice; C57BL/6J, mouse, in vivo): 4 days
- pTh46.50.55 / NCC (NCC pThr46/50/55/60; 10 mg/kg): 1.78 and 1.82 and 2.81 and 2.21
- pTh60 / NCC (NCC pThr46/50/55/60; 10 mg/kg): 1.01 and 0.99 and 1 and 0.94
- pTh46.50.55 / NCC (NCC pThr46/50/55/60; 30 mg/kg): 2.61 and 1.78 and 2.06 and 1.98
- pTh60 / NCC (NCC pThr46/50/55/60; 30 mg/kg): 1.05 and 0.97 and 0.9 and 1.01
- pTh46.50.55 / NCC (NCC pThr46/50/55/60; 50 mg/kg): 0.4 and 0.7 and 0.69 and 0.55
- pTh46.50.55 / NCC (NCC pThr46/50/55/60; 100 mg/kg): 0.68 and 0.46 and 0.41
